According to publication PMC9981942, “Pharmacokinetics and tissue distribution of Ramulus Mori (Sangzhi) alkaloids in rats and its effects on liver enzyme activity” (Frontiers in Pharmacology, 2023):

Key:
Experiment in all cases: in vitro
CYP1A2 [1] = biological target: T1, CYP1A2 (Homo sapiens, UniProt P05177); conditions: microsomes, pH 7.4
T1 sequence (P05177 1-516): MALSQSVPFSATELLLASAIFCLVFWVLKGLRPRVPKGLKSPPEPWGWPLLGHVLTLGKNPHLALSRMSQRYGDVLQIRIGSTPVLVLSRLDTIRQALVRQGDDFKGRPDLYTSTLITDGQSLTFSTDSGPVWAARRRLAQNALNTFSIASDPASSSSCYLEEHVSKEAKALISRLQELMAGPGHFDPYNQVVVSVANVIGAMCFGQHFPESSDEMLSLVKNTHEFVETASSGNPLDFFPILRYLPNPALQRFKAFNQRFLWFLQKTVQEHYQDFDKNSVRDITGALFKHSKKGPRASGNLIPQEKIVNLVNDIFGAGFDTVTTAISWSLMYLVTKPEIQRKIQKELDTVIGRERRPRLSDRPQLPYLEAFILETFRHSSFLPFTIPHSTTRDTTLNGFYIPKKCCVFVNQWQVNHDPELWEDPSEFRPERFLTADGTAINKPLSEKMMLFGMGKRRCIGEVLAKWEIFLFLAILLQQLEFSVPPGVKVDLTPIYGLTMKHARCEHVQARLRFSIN

CYP1A2 [2] = biological target: T2, CYP1A2 (Rattus norvegicus, UniProt P04799); conditions: liver microsomes, pH 7.4, probe phenacetin (50 μM)
T2 sequence (P04799 1-513): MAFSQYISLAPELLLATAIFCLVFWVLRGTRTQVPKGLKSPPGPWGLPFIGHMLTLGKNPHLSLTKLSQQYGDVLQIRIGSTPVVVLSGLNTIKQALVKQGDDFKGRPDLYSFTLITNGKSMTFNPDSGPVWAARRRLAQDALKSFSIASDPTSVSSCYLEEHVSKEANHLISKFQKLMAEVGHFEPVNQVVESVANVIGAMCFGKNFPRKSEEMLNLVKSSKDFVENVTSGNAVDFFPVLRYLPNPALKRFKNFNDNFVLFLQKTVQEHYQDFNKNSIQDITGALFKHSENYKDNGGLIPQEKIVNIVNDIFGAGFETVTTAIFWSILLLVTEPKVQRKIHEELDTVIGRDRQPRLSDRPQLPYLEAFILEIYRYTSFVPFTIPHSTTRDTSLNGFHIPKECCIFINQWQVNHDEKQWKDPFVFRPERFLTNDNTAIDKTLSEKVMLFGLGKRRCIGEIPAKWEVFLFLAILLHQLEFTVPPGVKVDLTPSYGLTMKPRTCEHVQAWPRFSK

CYP3A2 = biological target: T3, CYP3A2 (Rattus norvegicus, UniProt P05183); conditions: liver microsomes, pH 7.4, probe midazolam (5 μM)
T3 sequence (P05183 1-504): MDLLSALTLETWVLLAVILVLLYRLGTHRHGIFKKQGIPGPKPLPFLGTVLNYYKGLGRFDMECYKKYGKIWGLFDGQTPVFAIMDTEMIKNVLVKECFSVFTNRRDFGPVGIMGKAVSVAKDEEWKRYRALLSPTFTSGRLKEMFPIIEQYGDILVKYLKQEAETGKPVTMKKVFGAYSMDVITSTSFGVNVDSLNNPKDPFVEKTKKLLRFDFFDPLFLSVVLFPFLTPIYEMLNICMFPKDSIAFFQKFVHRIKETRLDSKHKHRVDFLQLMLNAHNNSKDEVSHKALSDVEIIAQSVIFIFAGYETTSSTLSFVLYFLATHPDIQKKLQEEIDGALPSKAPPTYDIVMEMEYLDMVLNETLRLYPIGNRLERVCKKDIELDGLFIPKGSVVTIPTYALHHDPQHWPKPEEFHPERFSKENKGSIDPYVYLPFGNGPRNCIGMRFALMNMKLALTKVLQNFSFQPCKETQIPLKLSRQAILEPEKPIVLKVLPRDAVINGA

CYP2C6 = biological target: T4, CYP2C6 (Rattus norvegicus, UniProt P05178); conditions: liver microsomes, pH 7.4, probe diclofenac sodium (20 μM)
T4 sequence (P05178 1-490): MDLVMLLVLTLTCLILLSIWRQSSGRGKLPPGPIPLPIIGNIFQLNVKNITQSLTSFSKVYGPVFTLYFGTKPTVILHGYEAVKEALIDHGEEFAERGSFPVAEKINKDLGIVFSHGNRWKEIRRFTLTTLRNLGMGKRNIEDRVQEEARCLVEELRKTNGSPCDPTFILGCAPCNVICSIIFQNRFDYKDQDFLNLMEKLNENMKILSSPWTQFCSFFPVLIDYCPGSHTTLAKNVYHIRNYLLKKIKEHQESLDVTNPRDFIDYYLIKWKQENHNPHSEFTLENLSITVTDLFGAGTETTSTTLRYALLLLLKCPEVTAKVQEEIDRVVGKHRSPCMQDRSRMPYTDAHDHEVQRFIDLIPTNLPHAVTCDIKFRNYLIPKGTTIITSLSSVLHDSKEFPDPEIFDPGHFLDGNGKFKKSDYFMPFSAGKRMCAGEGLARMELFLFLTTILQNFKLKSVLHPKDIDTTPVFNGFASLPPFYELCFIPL

Q: Which results are given for `Cc1nc2c([nH]1)c(=O)n(C)c(=O)n2Cc1ccco1` [furafylline]?
A: inhibition at 30 min, 10 μM (CYP1A2 [1]): 71.8%; inhibition at 30 min, 50 μM (CYP1A2 [2]): 66.3%

Q: `CC(=O)N1CCN(c2ccc(OCC3COC(Cn4ccnc4)(c4ccc(Cl)cc4Cl)O3)cc2)CC1` (stereo not shown) [ketoconazole] was tested. Which inhibition at 5 min, 1 μM (CYP3A2) did it give?
A: 76.4%

Q: How did the inhibition at 10 min, 50 μM (CYP2C6) turn out when `Nc1ccc(S(=O)(=O)Nc2ccnn2-c2ccccc2)cc1` [sulfaphenazole] was run?
A: 88%
